In BigSolDB 2.1:

[NH3+]O.[NH3+]O.[O-]n1nnnc1-c1nnnn1[O-]
solubility (mole fraction)
Conditions | in DMF | in DMSO | in ethanol | in ethyl acetate | in formic acid | in toluene | in water
293.15 K | 6.38e-05 | 0.00122 | 3.87e-06 | 1.93e-06 | 0.000213 | 1.85e-05 | 2.42e-05
298.15 K | 7.18e-05 | 0.00131 | 4.82e-06 | 2.16e-06 | 0.000231 | 2.2e-05 | 2.83e-05
303.15 K | 9.56e-05 | 0.00149 | 5.92e-06 | 2.37e-06 | 0.00025 | 2.44e-05 | 3.29e-05
308.15 K | 0.000142 | 0.00159 | 7.19e-06 | 2.72e-06 | 0.00028 | 2.6e-05 | 3.59e-05
313.15 K | 0.000183 | 0.00179 | 8.16e-06 | 3.16e-06 | 0.000302 | 2.89e-05 | 4.17e-05
318.15 K | 0.000225 | 0.00191 | 9.64e-06 | 3.56e-06 | 0.000347 | 3.24e-05 | 4.84e-05
323.15 K | 0.000269 | 0.00211 | 1.21e-05 | 3.92e-06 | 0.000392 | 3.69e-05 | 5.5e-05
